Assays:
[1] = test system: OPM-2 human multiple myeloma cell line; test: Cell Viability Assay (OPM-2 10 FBS); assay type: cell-based; settings: OPM-2 cells, CellTiter-Glo
Protocol: Cell Viability Assay (OPM-2 10 FBS)
Cells were seeded into 384-well plates at 3000 cells/well density in complete growth medium containing 10% FBS, and incubated for 16 h with serially diluted test compounds in a 37° C. incubator with 5% CO2. Cell viability was tested using CellTiter-Glo® assay (Promega, Madison, WI) according to the manufacturer recommendations. Luminescence was determined using an EnVision® Multilabel plate reader 25 min after the addition of detection reagent. IC50 values were then calculated with Xlfit using a logistical 4-parameter fit model in GraphPad Prism (GraphPad Software, San Diego, CA) or in Genedata Screener® (Genedata, Basel, Switzerland).

[2] = target: T1, Mcl-1/Bim interaction, recombinant human Mcl-1 (171-327) (Homo sapiens, UniProt Q07820); test: Cell free Mcl-1: Bim Affinity Assay (Mcl-1 HTRF); assay type: binding
T1 construct: made in house
Method in brief: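 Biotin-Bim(51-76) peptide, TR-FRET readout, overnight incubation; IC50 from duplicate competition curves, 4-parameter fit.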

[3] = TR-FRET, 0.1 nM Mcl-1 (171-327), 0.05 nM biotin-Bim (51-76)
[4] = Homo sapiens, OPM-2, 16 h, 16 h
[5] = cell free Mcl-1:Bim TR-FRET, recombinant human Mcl-1 (171-327)

T1 sequence (Q07820 171-327): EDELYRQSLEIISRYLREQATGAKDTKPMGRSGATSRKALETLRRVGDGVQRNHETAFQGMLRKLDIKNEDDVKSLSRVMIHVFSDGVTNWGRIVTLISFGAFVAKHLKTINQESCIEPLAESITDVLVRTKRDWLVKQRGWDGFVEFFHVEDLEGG

For `CC(C)(C)S(=O)(=O)CC[C@@H]1CC/C=C/[C@H](O)[C@@H]2CC[C@H]2CN2C[C@@]3(CCCc4cc(Cl)ccc43)COc3ccc(cc32)C(=O)NS1(=O)=O.CC(C)(C)S(=O)(=O)CC[C@H]1CC/C=C/[C@H](O)[C@@H]2CC[C@H]2CN2C[C@@]3(CCCc4cc(Cl)ccc43)COc3ccc(cc32)C(=O)NS1(=O)=O` (mixture of isomers) [Example 154], the IC50 ([1]; 16 h) was 7580 nM and the IC50 [2, 3] was 0.259 nM.

Work on `CNC(=O)[C@@H](OC)[C@@H]1/C=C/[C@@H]2CC[C@H]2CN2C[C@@]3(CCCc4cc(Cl)ccc43)COc3ccc(cc32)C(=O)NS(=O)(=O)[C@H](C)[C@@H](C)C1.CNC(=O)[C@H](OC)[C@@H]1/C=C/[C@@H]2CC[C@H]2CN2C[C@@]3(CCCc4cc(Cl)ccc43)COc3ccc(cc32)C(=O)NS(=O)(=O)[C@H](C)[C@@H](C)C1` (mixture of isomers) [Example 362] yielded an IC50 ([1]; 16 h) of 476 nM and an IC50 [2, 3] of 0.639 nM.

For `C[C@@H]1CC/C=C/[C@H](OC[C@H](O)CO)[C@@H]2CC[C@H]2CN2C[C@@]3(CCCc4cc(Cl)ccc43)COc3ccc(cc32)C(=O)NS1(=O)=O` (mixture of isomers) [Example 415], the IC50 [1, 4] was 2640 nM and the IC50 [2, 3] was 0.276 nM.

Work on `C[C@@H]1[C@@H](C)C/C=C/[C@H](OCCO[C@H]2CCCCO2)[C@@H]2CC[C@H]2CN2C[C@@]3(CCCc4cc(Cl)ccc43)COc3ccc(cc32)C(=O)NS1(=O)=O` (mixture of isomers) [Example 517] yielded an IC50 [1, 4] of 467 nM and an IC50 [2, 5] of 1.86 nM.

For `COC(C)COC1C=CCC(C)C(C)S(=O)(=O)NC(=O)c2ccc3c(c2)N(CC2CCC21)CC1(CCCc2cc(Cl)ccc21)CO3` (mixture of isomers) [Example 519], the IC50 ([1]; 16 h) was 339 nM and the IC50 [2, 5] was 1.44 nM.

With `COCC1COCCN1CCOC1C=CCC(C)C(C)S(=O)(=O)NC(=O)c2ccc3c(c2)N(CC2CCC21)CC1(CCCc2cc(Cl)ccc21)CO3` (mixture of isomers) [Example 530] the IC50 ([1]; 16 h) was 134 nM and the IC50 [2, 5] was 0.763 nM.

Work on `O=C1NS(=O)(=O)N(CC2CCCO2)C/C=C/[C@H](O)[C@@H]2CC[C@H]2CN2C[C@@]3(CCCc4cc(Cl)ccc43)COc3ccc1cc32` (mixture of isomers) [Example 691] yielded an IC50 [1, 4] of 2330 nM and an IC50 [2, 5] of 1.81 nM.

For `COCC(C)OC1C=CCCC(C)S(=O)(=O)NC(=O)c2ccc3c(c2)N(CC2CCC21)CC1(CCCc2cc(Cl)ccc21)CO3` (mixture of isomers) [Example 955], the IC50 ([1]; 16 h incubation) was 567 nM and the IC50 [2, 3] was 1.23 nM.

`CCC1CCC=CC(OC(C)C(=O)OC)C2CCC2CN2CC3(CCCc4cc(Cl)ccc43)COc3ccc(cc32)C(=O)NS1(=O)=O` (mixture of isomers) [Example 1004] showed an IC50 ([1]; 16 h incubation) of 23.6 nM and an IC50 [2, 3] of 0.635 nM.

`CCC1CCC=CC(OC(C)C(N)=O)C2CCC2CN2CC3(CCCc4cc(Cl)ccc43)COc3ccc(cc32)C(=O)NS1(=O)=O` (mixture of isomers) [Example 1006] was tested, and the IC50 ([1]; 16 h incubation) was 11600 nM and the IC50 [2, 3] was 0.81 nM.

`CO[C@H]1/C=C/CCN(C)S(=O)(=O)NC(=O)c2ccc3c(c2)N(C[C@@H]2CC[C@H]21)C[C@@]1(CCCc2cc(Cl)ccc21)CO3` (single isomer, unassigned) [Example 47] gave an IC50 [1, 4] of 1280 nM and an IC50 [2, 3] of 0.629 nM.

In the case of `C[C@H]1C/C=C/[C@H](O)[C@@H]2CC[C@H]2CN2C[C@@]3(CCCc4cc(Cl)ccc43)COc3ccc(cc32)C(=O)NS(=O)(=O)N1C[C@@H]1CCCO1` (single isomer, unassigned) [Example 49], the IC50 [1, 4] is reported as 444 nM and the IC50 [2, 3] is reported as 0.321 nM.

`C[C@H]1C/C=C\[C@H](O)[C@@H]2CC[C@H]2CN2C[C@@]3(CCCc4cc(Cl)ccc43)COc3ccc(cc32)C(=O)NS(=O)(=O)N1C[C@@H]1CCCO1` (single isomer, unassigned) [Example 50] was tested, and the IC50 [1, 4] was 2210 nM and the IC50 [2, 3] was 3.62 nM.

`C[C@@H]1C/C=C/[C@H](O)[C@@H]2CC[C@H]2CN2C[C@@]3(CCCc4cc(Cl)ccc43)COc3ccc(cc32)C(=O)NS(=O)(=O)N1C[C@@H]1CCCO1` (single isomer, unassigned) [Example 51] gave an IC50 [1, 4] of 1830 nM and an IC50 [2, 3] of 5.59 nM.

For `C[C@@H]1C/C=C\[C@H](O)[C@@H]2CC[C@H]2CN2C[C@@]3(CCCc4cc(Cl)ccc43)COc3ccc(cc32)C(=O)NS(=O)(=O)N1C[C@@H]1CCCO1` (single isomer, unassigned) [Example 52], the IC50 [1, 4] was 1810 nM and the IC50 [2, 3] was 3.93 nM.

`C[C@H]1C/C=C/[C@H](O)[C@@H]2CC[C@H]2CN2C[C@@]3(CCCc4cc(Cl)ccc43)COc3ccc(cc32)C(=O)NS(=O)(=O)N1C[C@H]1CCCO1` (single isomer, unassigned) [Example 53] was tested, and the IC50 [1, 4] was 486 nM and the IC50 [2, 3] was 0.79 nM.

Compound `C[C@H]1C/C=C\[C@H](O)[C@@H]2CC[C@H]2CN2C[C@@]3(CCCc4cc(Cl)ccc43)COc3ccc(cc32)C(=O)NS(=O)(=O)N1C[C@H]1CCCO1` (single isomer, unassigned) [Example 54] has an IC50 [1, 4] of 774 nM and an IC50 [2, 3] of 0.781 nM.

For `C[C@@H]1C/C=C\[C@H](O)[C@@H]2CC[C@H]2CN2C[C@@]3(CCCc4cc(Cl)ccc43)COc3ccc(cc32)C(=O)NS(=O)(=O)N1C[C@H]1CCCO1` (single isomer, unassigned) [Example 56], the IC50 [1, 4] was 1790 nM and the IC50 [2, 3] was 3.04 nM.

Compound `CCN1[C@@H](C)C/C=C/[C@H](O)[C@@H]2CC[C@H]2CN2C[C@@]3(CCCc4cc(Cl)ccc43)COc3ccc(cc32)C(=O)NS1(=O)=O` (single isomer, unassigned) [Example 57] has an IC50 [1, 4] of 555 nM and an IC50 [2, 3] of 0.491 nM.

For `CCN1C(C)C/C=C\[C@H](O)[C@@H]2CC[C@H]2CN2C[C@@]3(CCCc4cc(Cl)ccc43)COc3ccc(cc32)C(=O)NS1(=O)=O` (single isomer, unassigned) [Example 58], the IC50 ([1]; 16 h) was 1180 nM and the IC50 [2, 3] was 0.994 nM.

Compound `CCN1[C@H](C)C/C=C\[C@H](O)[C@@H]2CC[C@H]2CN2C[C@@]3(CCCc4cc(Cl)ccc43)COc3ccc(cc32)C(=O)NS1(=O)=O` (single isomer, unassigned) [Example 60] has an IC50 ([1]; 16 h) of 2690 nM and an IC50 [2, 3] of 4.08 nM.

For `COCCN1[C@@H](C)C/C=C\[C@H](O)[C@@H]2CC[C@H]2CN2C[C@@]3(CCCc4cc(Cl)ccc43)COc3ccc(cc32)C(=O)NS1(=O)=O` (single isomer, unassigned) [Example 63], the IC50 [1, 4] was 810 nM and the IC50 [2, 3] was 0.728 nM.

`COCCO[C@H]1/C=C\C[C@H](C)NS(=O)(=O)NC(=O)c2ccc3c(c2)N(C[C@@H]2CC[C@H]21)C[C@@]1(CCCc2cc(Cl)ccc21)CO3` (single isomer, unassigned) [Example 64] was tested, and the IC50 [1, 4] was 399 nM and the IC50 [2, 3] was 0.678 nM.

Compound `COCCO[C@H]1/C=C\C[C@H](C)N(CCOC)S(=O)(=O)NC(=O)c2ccc3c(c2)N(C[C@@H]2CC[C@H]21)C[C@@]1(CCCc2cc(Cl)ccc21)CO3` (single isomer, unassigned) [Example 65] has an IC50 [1, 4] of 1170 nM and an IC50 [2, 3] of 2.38 nM.

`COCCO[C@H]1/C=C/C[C@H](C)N(CCOC)S(=O)(=O)NC(=O)c2ccc3c(c2)N(C[C@@H]2CC[C@H]21)C[C@@]1(CCCc2cc(Cl)ccc21)CO3` (single isomer, unassigned) [Example 69] gave an IC50 [1, 4] of 276 nM and an IC50 [2, 3] of 0.529 nM.

With `COCCCN1[C@@H](C)C/C=C/[C@H](O)[C@@H]2CC[C@H]2CN2C[C@@]3(CCCc4cc(Cl)ccc43)COc3ccc(cc32)C(=O)NS1(=O)=O` (single isomer, unassigned) [Example 72] the IC50 [1, 4] was 445 nM and the IC50 [2, 3] was 0.324 nM.

Compound `COCCCN1[C@@H](C)C/C=C\[C@H](O)[C@@H]2CC[C@H]2CN2C[C@@]3(CCCc4cc(Cl)ccc43)COc3ccc(cc32)C(=O)NS1(=O)=O` (single isomer, unassigned) [Example 73] has an IC50 [1, 4] of 1660 nM and an IC50 [2, 3] of 0.728 nM.

Compound `COCCCO[C@H]1/C=C/C[C@H](C)NS(=O)(=O)NC(=O)c2ccc3c(c2)N(C[C@@H]2CC[C@H]21)C[C@@]1(CCCc2cc(Cl)ccc21)CO3` (single isomer, unassigned) [Example 74] has an IC50 [1, 4] of 381 nM and an IC50 [2, 3] of 1.13 nM.

Compound `COCCCO[C@H]1/C=C/C[C@H](C)N(CCCOC)S(=O)(=O)NC(=O)c2ccc3c(c2)N(C[C@@H]2CC[C@H]21)C[C@@]1(CCCc2cc(Cl)ccc21)CO3` (single isomer, unassigned) [Example 75] has an IC50 [1, 4] of 875 nM and an IC50 [2, 3] of 1.66 nM.

`COc1ccc(CN2[C@@H](C)C/C=C/[C@H](O)[C@@H]3CC[C@H]3CN3C[C@@]4(CCCc5cc(Cl)ccc54)COc4ccc(cc43)C(=O)NS2(=O)=O)cc1` (single isomer, unassigned) [Example 80] showed an IC50 [1, 4] of 6530 nM and an IC50 [2, 3] of 8.98 nM.

`COc1ccc(CN2[C@@H](C)C/C=C\[C@H](O)[C@@H]3CC[C@H]3CN3C[C@@]4(CCCc5cc(Cl)ccc54)COc4ccc(cc43)C(=O)NS2(=O)=O)cc1` (single isomer, unassigned) [Example 81] gave an IC50 [1, 4] of 6440 nM and an IC50 [2, 3] of 38.5 nM.

`O=C1NS(=O)(=O)[C@H]2CC[C@@H]2C/C=C/[C@H](O)[C@@H]2CC[C@H]2CN2C[C@@]3(CCCc4cc(Cl)ccc43)COc3ccc1cc32` (single isomer, unassigned) [Example 90] gave an IC50 [1, 4] of 322 nM and an IC50 [2, 3] of 0.44 nM.

`O=C1NS(=O)(=O)[C@H]2CCC[C@H](/C=C/[C@H](O)[C@@H]3CC[C@H]3CN3C[C@@]4(CCCc5cc(Cl)ccc54)COc4ccc1cc43)C2` (single isomer, unassigned) [Example 104] showed an IC50 ([1]; 16 h) of 13000 nM and an IC50 [2, 3] of 40 nM.

Work on `CC[C@@H]1CC/C=C/[C@H](OCCC(=O)OC)[C@@H]2CC[C@H]2CN2C[C@@]3(CCCc4cc(Cl)ccc43)COc3ccc(cc32)C(=O)NS1(=O)=O` [Example 1007] yielded an IC50 ([1]; Homo sapiens, OPM-2, 16 h, 16 h incubation) of 74 nM.
